Patent US20240254108A1, “COMPOUND COMPRISING PYRROLIDINE AS LINKER, AND PHARMACEUTICAL COMPOSITION COMPRISING SAME” (BEAD TECH INC., priority 2021, published 2024)

System: factors (genes) causing atopic dermatitis
Test: Expression of atopic dermatitis factors (genes) in skin of DNFB-treated mice, real time PCR (Experimental Example 4)
Format: in vivo
Conditions: RNA from skin of DNFB-treated female BALB/C mice, compound 100 μM on skin once a day to day 16; FIGS. 9 to 12
Description: For real time PCR, RNA was extracted using RNAiso Plus (TAKARA, Japan) and cDNA was synthesized using a cDNA synthesis kit (TAKARA, JAPAN). The polymerization reaction was carried out using the synthesized cDNA and a Sybr green kit (Enzynomics, Korea). […]

In the case of `NC(=O)[C@H](Cc1c[nH]cn1)NC(=O)[C@H]1CCCN1C(=O)c1cccc(O)c1O` [Example 18], the “expression of the factors (genes) causing atopic dermatitis” value was “reduce the expression of the factors (genes)”.
